Source: publication PMC7318222, “A Family of Water‐Immiscible, Dipolar Aprotic, Diamide Solvents from Succinic Acid” (Chemsuschem, 2020)

Target: T1, PPARα (Homo sapiens, UniProt Q07869)
T1 construct: expression construct for the full-length human receptor under investigation; expressed in transfected cells; host or cells: human U2-OS cells (ATCC HTB-96), stably transfected
T1 sequence (Q07869 1-468): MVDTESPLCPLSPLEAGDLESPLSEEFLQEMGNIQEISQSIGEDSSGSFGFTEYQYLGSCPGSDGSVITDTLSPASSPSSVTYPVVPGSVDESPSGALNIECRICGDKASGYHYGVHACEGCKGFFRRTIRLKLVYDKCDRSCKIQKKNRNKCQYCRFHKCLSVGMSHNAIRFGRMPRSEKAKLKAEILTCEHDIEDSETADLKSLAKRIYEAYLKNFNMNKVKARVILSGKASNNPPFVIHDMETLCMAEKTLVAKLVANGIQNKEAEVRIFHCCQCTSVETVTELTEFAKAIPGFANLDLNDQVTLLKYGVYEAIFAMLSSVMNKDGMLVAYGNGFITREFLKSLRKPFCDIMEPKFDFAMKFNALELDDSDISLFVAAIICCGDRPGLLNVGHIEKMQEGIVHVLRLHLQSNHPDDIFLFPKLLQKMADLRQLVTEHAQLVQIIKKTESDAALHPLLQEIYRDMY
Test: PPARα CALUX reporter gene assay
Format: cell-based
Parameters: key: –: no effect observed up to the highest test concentration
Settings: PC10, 24 h exposure
Source text: Succinyl chloride (2 M soln. in dichloromethane), N-methylbutylamine 90%, N-ethylbutylamine 95%, Dibutylamine 99% were purchased from TCI chemicals. K60 silica was purchased from Merck chemicals. Succinic acid ≥99.0%, N-methylpyrrolidinone 99.0%, 1-bromooctane ≥97.0%, 1-methylimidazole 99.0%, iodobenzene 99.9%, methylacrylate 99.9%, palladium(II) acetate ≥99.9% trace metals basis, triethylamine ≥99.0%, trimesic acid 95%, copper(II) nitrate trihydrate ≥99.0%, 2-methylimidazole 99.0%, zinc(II) nitrate hexahydrate ≥99.0%, para-cymene 99.0%, 1,4-dioxane 99.8% (anhydrous), 4-nitroaniline ≥99.0%, 1-octanol ≥99.0%, diglyme ≥99.0%, DMSO-d6 (99.8% D) and chloroform-d (99.8% D) were purchased from Sigma-Aldrich. Toluene ≥99.0%, hexane ≥99.5%, DCM ≥99.5%, chloroform ≥99.5%, DMSO ≥99.0% were purchased from VWR. N,N-diethyl-4-nitroaniline ≥98.0% was purchased from Alfa Aeser. Cyrene was supplied by Circa group. N-butylpyrrolidinone was supplied by Eastman chemicals. N,N-dimethylformamide 99.9% and N,N-dimethylacetamide 99.9% were purchased from Fischer. The flakes of Ultrason® E3020 P Polyarylethersulfone of 55,000 Da were obtained from INGE.BASF, Germany. The CALUX cell lines have been described previously.[1] They are based on human U2-OS cells (ATCC, HTB-96) stably transfected with an expression construct for the full-length human receptor under investigation, and a reporter construct consisting of multimerized responsive elements for the cognate receptor coupled to a minimal promoter element (TATA) and a luciferase gene. Cells were maintained as described previously,[2] using cell culture media and supplements from Fisher Scientific as described in the experimental procedures section. […]
In vitro reporter gene assays
The automated CALUX assays were carried out similarly as described earlier,[12] with some adaptations. In brief, the assay was performed in CO2 independent medium (Fisher Scientific, […]
supplement (Fisher Scientific, 11574466), 10 U/mL penicillin and 10 µg/mL streptomycin. A cell suspension in assay medium was made of 1 × 10^5cells/mL, and white 384-wells plates were seeded with 30 µl cell suspension/well. After 24 h, exposure medium was prepared. A dilution series in 0.5log unit increments of each test compound (in DMSO) was added to a 96-wells plate containing assay medium (2% v/v). Of this exposure mixture, 30 µl was added to the assay plates containing the CALUX cells, resulting in a final DMSO concentration of 1%. Additionally, DMSO blanks and a full dose response curve of the relevant reference compound were included on each plate. All samples were tested in triplicate. The preparation of the compound dilution series as well as the exposure of the cells were performed on a Hamilton StarLET liquid handling robot coupled to a Cytomat incubator.
Directly after exposure, plates were sealed with non-breathing plate seals (Plate sealer, easy seal transparent; Greiner-Bio-One, 676001). After 24 h the exposure medium was removed using an EL406 washer-dispenser (BioTek) and 10 µl/well triton lysisbuffer was added by the EL406.
Subsequently, the luciferase signal was measured in a luminometer (InfinitePro coupled to a Connect Stacker, both TECAN). In order to be able to detect receptor antagonism, several assays were also performed in antagonistic mode. […]
The luminometer data was analysed as follows; the average of the triplicate wells was determined, and the average blank (DMSO) value was subtracted. […]

Row | Compound | LEC PPARα
1 | CCCCN(CC)C(=O)CCC(=O)N(CC)CCCC [EBSA, N,N′‐diethyl‐N,N′‐dibutylsuccindiamide] | –
2 | CCCCN(C)C(=O)CCC(=O)N(C)CCCC [MBSA, N,N′‐dimethyl‐N,N′‐dibutylsuccindiamide] | –
3 | CCCCN(CCCC)C(=O)CCC(=O)N(CCCC)CCCC [TBSA, N,N,N′,N′‐tetrabutylsuccindiamide] | –

More lines, now with the values ahead:

Row | LEC PPARα | Compound
4 | – | CCCCN1CCCC1=O [NBP, N‐Butylpyrrolidinone, reference compound]
5 | – | CN1CCCC1=O [NMP, N‐methyl‐2‐pyrrolidone, reference compound]
